# Experimental data taken from PMC3148848 (Journal of medicinal chemistry, 2009).
# Biological target: SARS-CoV PLpro (Severe acute respiratory syndrome coronavirus, UniProt P0C6X7)
# Assay type: biochemical
smiles,measurement,value
Cc1ccccc1C(=O)N[C@H](C)c1ccc2ccccc2c1 [lead],mode of inhibition (kinetic studies),reversible inhibitor
